This is an account of results in patent US6358698B1 (Acadia Pharmacueticals Inc., priority 1998, dated 2002).

Where two headings read alike, the source gives them in different places. Where only a bound is given, the exact number is not on record here.

One test has as its target T1, human 5-HT2C receptor (Homo sapiens, UniProt P28335).
T1 construct: expressed in transfected cells; host or cells: not restated for 5-HT2C; R-SAT as for 5-HT2A (NIH 3T3)
T1 sequence (P28335 33-458): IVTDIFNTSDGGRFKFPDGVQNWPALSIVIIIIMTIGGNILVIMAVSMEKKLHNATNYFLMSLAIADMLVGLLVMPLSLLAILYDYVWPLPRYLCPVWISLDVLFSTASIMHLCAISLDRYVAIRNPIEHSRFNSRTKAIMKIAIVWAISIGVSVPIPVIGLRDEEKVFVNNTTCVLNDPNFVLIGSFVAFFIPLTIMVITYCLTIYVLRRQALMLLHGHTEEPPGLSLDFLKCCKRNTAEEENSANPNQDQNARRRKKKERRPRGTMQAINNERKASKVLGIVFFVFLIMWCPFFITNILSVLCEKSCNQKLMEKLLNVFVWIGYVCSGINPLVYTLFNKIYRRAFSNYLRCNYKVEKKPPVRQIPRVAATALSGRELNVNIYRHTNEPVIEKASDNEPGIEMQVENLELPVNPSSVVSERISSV
The test can be described thus: R-SAT functional assay, constitutively active wild type 5-HT2C receptor. It is filed as cell-based. Conditions: for 5-HT2C Receptor Negative Log EC50 (inverse agonism): Table 3, 50 ng per well receptor DNA, assayed as agonists and inverse agonists; for EC50: read-out: 5-HT2C Receptor Negative Log EC50 (inverse agonism) (converted).

The target of the next test is T2, 5-HT2A receptor (Homo sapiens, UniProt P28223).
T2 construct: expressed in transfected cells; host or cells: NIH 3T3 (mouse fibroblast)
T2 sequence (P28223 whole entry): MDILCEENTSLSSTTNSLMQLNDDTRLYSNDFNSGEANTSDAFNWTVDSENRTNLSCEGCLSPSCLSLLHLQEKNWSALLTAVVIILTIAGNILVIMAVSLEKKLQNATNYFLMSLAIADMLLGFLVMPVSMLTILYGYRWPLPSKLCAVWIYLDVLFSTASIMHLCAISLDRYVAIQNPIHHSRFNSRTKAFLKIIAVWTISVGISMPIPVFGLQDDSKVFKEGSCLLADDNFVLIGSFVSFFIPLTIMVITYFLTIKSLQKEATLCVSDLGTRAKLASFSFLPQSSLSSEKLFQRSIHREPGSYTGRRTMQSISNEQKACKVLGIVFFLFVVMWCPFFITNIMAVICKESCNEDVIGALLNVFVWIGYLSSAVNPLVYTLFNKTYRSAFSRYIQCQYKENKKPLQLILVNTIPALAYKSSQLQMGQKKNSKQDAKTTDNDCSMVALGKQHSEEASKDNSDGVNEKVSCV
The test can be described thus: R-SAT functional assay, constitutively active wild type 5-HT2A receptor in NIH 3T3 cells. It is filed as cell-based. The following applies: for Negative LOG EC50 (inverse agonism, inhibition of constitutive activity): Table 2, molar negative log EC50, mean of three dose response experiments +/- standard error, 50 ng/well DNA.

Where [1] appears, read: Table 3, 50 ng/well receptor DNA.
Setting [2] is: Table 3, 50 ng/well receptor DNA, read-out: 5-HT2A Receptor Negative Log EC50 (inverse agonism) (converted).
The mark [3] stands for this setting: read-out: Negative LOG EC50 (inverse agonism, inhibition of constitutive activity) (converted).
[4] abbreviates: compounds screened at 300-500 nM, 50 ng/well receptor DNA, […], mean of duplicates.
[5] abbreviates: compounds screened at 300-500 nM, 50 ng/well receptor DNA, inhibition from basal, referenced to ritanserin (90-100%), mean of duplicates.

In the case of `CCN(CC)CCCN1c2ccccc2Sc2ccc(Cl)cc21` [Chlorproethizene], the “5-HT2C Receptor Negative Log EC50 (inverse agonism)” value (from here on “5-HT2C Receptor Negative Log EC50”) at human 5-HT2C receptor is under 5.0. In addition, the “5-HT2A Receptor Negative Log EC50 (inverse agonism)” value (shortened to “5-HT2A Receptor Negative Log EC50”) at 5-HT2A receptor (setting [1]) is 7.70 +/− 0.33. Regarding `CN1CCN(C2=Nc3ccccc3Oc3ccc(Cl)cc32)CC1` [LOXAPINE], on human 5-HT2C receptor, the 50% effective concentration (EC50) (commonly the concentration that produces a half-maximal response) was 501 nM. On to `CSc1ccc2c(c1)C(N1CCN(C)CC1)Cc1ccccc1S2` (centres unmarked) [METHIOTHEPIN], for which, at 5-HT2A receptor, the “% INHIBITION (screen for inverse agonism at 5-HT2A receptors)” value (from here on “% INHIBITION”) is given as 79%. Take `CCNC(=O)N1CCN(CCCC(c2ccc(F)cc2)c2ccc(F)cc2)CC1` [Amperozide]: the “5-HT2C Receptor Negative Log EC50” value on human 5-HT2C receptor is on record as “No Intrinsic”. The EC50 at 5-HT2A receptor (setting [2]) was 15.8 nM. Take `CN1CCN(C2=Nc3ccccc3Cc3ccccc32)CC1` [Perlapine]: the concentration giving a half-maximal response (EC50) is 1290 nM on human 5-HT2C receptor and 30.2 nM on 5-HT2A receptor (setting [2]).

On to `OCCN1CCN([C@@H]2C[C@@H](c3ccc(F)cc3)c3ccc(C(F)(F)F)cc32)CC1` (racemic) [Tefludazine], for which the 50% effective concentration (EC50) at human 5-HT2C receptor is 5.25 nM; at 5-HT2A receptor (setting [2]), 0.955 nM; at 5-HT2A receptor (setting [3]), 0.955 nM. As for `OCCN1CCN(CC/C=C2\c3ccccc3Sc3ccc(C(F)(F)F)cc32)CC1` [Trans-Flupentixol], at human 5-HT2C receptor, the “5-HT2C Receptor Negative Log EC50” value was 5.55 +/− 0.37. Also, the “Negative LOG EC50 (inverse agonism, inhibition of constitutive activity)” value at 5-HT2A receptor was 6.77 +/− 0.21. Moreover, the “5-HT2A Receptor Negative Log EC50” value at 5-HT2A receptor (setting [1]) was 6.77 +/− 0.21.

Consider `CN1CCN(C2Cc3ccccc3Sc3ccc(Cl)cc32)CC1.O=C(O)/C=C\C(=O)O` (centres unmarked) [OCTOCLOTHEPIN], for which, at 5-HT2A receptor (setting [1]), the “5-HT2A Receptor Negative Log EC50” value is given as 9.74 +/− 0.98. The “% INHIBITION” value on 5-HT2A receptor (setting [4]) amounted to 76%. In the case of `CC1CCN(CCCC(=O)c2ccc(F)cc2)CC1` [Melperone], the “5-HT2C Receptor Negative Log EC50” value on human 5-HT2C receptor is listed as “No Intrinsic”. The same measure, in the same setting: the result for `O=C(CCCN1CCC2(CC1)C(=O)NCN2c1ccccc1)c1ccc(F)cc1` [SPIPERONE] reads “No Intrinsic”. For the compound `CCN1CCCC1CNC(=O)c1cc(S(N)(=O)=O)ccc1OC` (centres unmarked) [Sulpiride], the “5-HT2C Receptor Negative Log EC50” value on human 5-HT2C receptor is reported as “No Intrinsic”. As for `CN1CCCCC1CCN1c2ccccc2Sc2ccc([S+](C)[O-])cc21` (centres unmarked) [Mesioridazine], the “5-HT2C Receptor Negative Log EC50” value on human 5-HT2C receptor is on record as “No Intrinsic”. On 5-HT2A receptor (setting [1]), the “5-HT2A Receptor Negative Log EC50” value was 7.00 +/− 0.30. For `OCCN1CCN(CC/C=C2/c3ccccc3Sc3ccc(C(F)(F)F)cc32)CC1` [CIS-FLUPENTIXOL], at human 5-HT2C receptor, the “5-HT2C Receptor Negative Log EC50” value is “No Intrinsic”. Also, the “Negative LOG EC50 (inverse agonism, inhibition of constitutive activity)” value at 5-HT2A receptor was 8.04 +/− 0.10. Further, the “5-HT2A Receptor Negative Log EC50” value at 5-HT2A receptor (setting [1]) is 8.04 +/− 0.10. In addition, the “% INHIBITION” value on 5-HT2A receptor (setting [4]) came out at 45%.

For the compound `CN(C)CCCN1c2ccccc2Sc2ccccc21` [Promazine], the “5-HT2C Receptor Negative Log EC50” value at human 5-HT2C receptor was “Agonist”. `Cc1nc2ccccn2c(=O)c1CCN1CCC(C(=O)c2ccc(F)cc2)CC1` [PIRENPIRONE]: the “% INHIBITION” value at 5-HT2A receptor (setting [5]) is on record as 92%. In the case of `Cc1nc2sccn2c(=O)c1CCN1CCC(=C(c2ccc(F)cc2)c2ccc(F)cc2)CC1` [RITANSERIN], the “Functional character at 5-HT2A receptor (inhibits signaling below baseline)” value on 5-HT2A receptor (PSI vector expression, in words) was “inverse agonist”. As to `CN(C)CCCN1c2ccccc2Sc2cccnc21` [Prothypendyl], the “5-HT2C Receptor Negative Log EC50” value on human 5-HT2C receptor was “Agonist”. In addition, the “5-HT2A Receptor Negative Log EC50” value at 5-HT2A receptor (setting [1]) is reported as 6.60 +/− 0.44.

For `N[C@@H](Cc1c[nH]c2ccc(O)cc12)C(=O)O` [5-hydroxy-Ltryptophan], the “% INHIBITION” value at 5-HT2A receptor (setting [5]) was 53%. Turning to `Cc1ccc(C2(O)CCN(CCCC(=O)c3ccc(F)cc3)CC2)cc1` [Moperone], the “5-HT2C Receptor Negative Log EC50” value on human 5-HT2C receptor is given as “No Intrinsic”. Turning to `O=C(CCCN1CCC(O)(c2ccc(Br)cc2)CC1)c1ccc(F)cc1` [Bromperidol], the “5-HT2C Receptor Negative Log EC50” value at human 5-HT2C receptor is listed as “No Intrinsic”. Take `CN1CCN(C2=Nc3ccccc3Sc3ccc(Cl)cc32)CC1` [Clothiapine]: the concentration for a half-maximal effect (EC50) at human 5-HT2C receptor is 479 nM; at 5-HT2A receptor (setting [2]), 2.82 nM. With `CN1CCN(CC/C=C2/c3ccccc3Sc3ccc(S(=O)(=O)N(C)C)cc32)CC1` [Thiothixene], at human 5-HT2C receptor, the “5-HT2C Receptor Negative Log EC50” value was “No Intrinsic”. In the case of `O=C1CC2(CCCC2)CC(=O)N1CCCCN1CCN(c2nsc3ccccc23)CC1` [Tiospirone], the EC50 on human 5-HT2C receptor is 513 nM; at 5-HT2A receptor (setting [2]) it was 1.82 nM. In the case of `O=C(CCCN1CCC(O)(c2cccc(C(F)(F)F)c2)CC1)c1ccc(F)cc1` [TRIFLUPERIDOL], the results for the EC50 on human 5-HT2C receptor, at 5-HT2A receptor (setting [2]) and at 5-HT2A receptor (setting [3]) were over 10000 nM, 25.7 nM and 25.7 nM, respectively.
